In patent US20170189366A1, “METHOD FOR TREATING DISORDERS RELATED TO COMPLEMENT ACTIVATION” (CASE WESTERN RESERVE UNIVERSITY, priority 2006, published 2017):

How the values were obtained:
[1] = test system: C3b activation on RPE-43 cell line; assay: Alternative pathway-dependent amplification of complement activation on C3b-seeded RPE-43 cell line; format: cell-based; conditions: after addition of C3, factor B, factor D, factor H, read-out: inhibition of further C3b activation
Excerpt: FIGS. 1A-C are a series of graphs showing the ability of an amidine compound according to the present invention to inhibit alternative pathway-dependent amplification of C3 cleavage. In FIG. 1A, factor B, factor D, and C3 were mixed in the absence or presence of increasing concentrations of the amidine compound and generation of C3a was quantified by ELISA. In FIG. 1B, factor B, factor D, C3, and a limiting amount of factor H were mixed in the absence or presence of two doses of the amidine compound following initial deposition of C3b on Bruch's membrane via anti-CEP initiated classical pathway activation. In FIG. 1C, factor B, factor D, C3, and a limiting amount of factor H were mixed in the absence or presence of two doses of the amidine compound following initial deposition of C3b on the RPE-43 cell line by anti-class I monomorphic antibody; and To determine how effective FUT-175 is in preventing alternative pathway-dependent amplification of complement activation on Bruch's membrane and RPE cells, we seeded purified Bruch's membrane from an AMD patient and the RPE-43 cell line with C3b (as would occur with anti-CEP autoantibodies) by sensitization with anti-CEP and anti-HLA monomorphic monoclonal antibodies, respectively, followed by incubation with purified C1, C4, C2, and decay of C1 and C2. […]

[2] = test system: laser-induced choroidal neovascularization; assay: Murine laser-induced CNV model; format: in vivo, mouse; conditions: i.p. injection
Excerpt: FIGS. 2A-B are a series of flat mounts showing the effects on lesion size of the amidine compound in a laser-induced CNV mouse model.
As part of our exploration of different strategies for inhibiting complement activation intraocularly so as to arrive at what methodology could be most efficacious for treating AMD patients clinically, we utilized the standard murine CNV model and analyzed the effect of an i.p. injection of FUT-175. As shown diagrammatically in FIGS. 2A-B, the drug reduced lesion size by >80%.

## N=C(N)Nc1ccc(C(=O)Oc2ccc3cc(C(=N)N)ccc3c2)cc1 [FUT-175, 6-amidino-2-napthyl-4-guanidinobenzoate dimethanesulfonate]
[1]
  inhibition at 0.3 µM: ~50%
[2]
  reduction of lesion size: > 80%
